Results: PubChem BioAssay (NCI)
Where “and” joins values, the source holds several entries; their conditions need not be identical. Equal entries are not always repeated.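 1) Cells in 96-well plates. 2) Compound, 48 h, 5 concentrations. 3) Linear interpolation between surrounding doses. 4) Unreached endpoint = highest concentration. GI50 marks 50% less growth. TGI: concentration producing complete growth inhibition.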

Assays:
Assay in all cases: NCI anticancer screen, dose series, 48 h
KM12 colon = system: KM12 colon
HOP-92 NSCLC = system: HOP-92 NSCLC
786-0 renal = system: 786-0 renal
U251 CNS = system: U251 CNS
MDA-MB-435 = system: MDA-MB-435
ACHN renal = system: ACHN renal
PC-3 prostate = system: PC-3 prostate
HL-60(TB) leukemia = system: HL-60(TB) leukemia
NCI-H460 lung = system: NCI-H460 lung
HT29 colon = system: HT29 colon

SMILES	GI50 (KM12 colon)	TGI (KM12 colon)	GI50 (HOP-92 NSCLC)	TGI (HOP-92 NSCLC)	GI50 (786-0 renal)	TGI (786-0 renal)	GI50 (U251 CNS)	TGI (U251 CNS)	GI50 (MDA-MB-435)	TGI (MDA-MB-435)	GI50 (ACHN renal)	TGI (ACHN renal)	GI50 (PC-3 prostate)	TGI (PC-3 prostate)	GI50 (HL-60(TB) leukemia)	TGI (HL-60(TB) leukemia)	GI50 (NCI-H460 lung)	TGI (NCI-H460 lung)	GI50 (HT29 colon)	TGI (HT29 colon)
CCCC(=O)Nc1c(I)cc(I)c(CC(CC)C(=O)O)c1I (stereo not drawn)	> 100 µM	> 100 µM	> 100 µM	> 100 µM	> 100 µM	> 100 µM	> 100 µM	> 100 µM	> 100 µM	> 100 µM	> 100 µM	> 100 µM	> 100 µM	> 100 µM	> 100 µM	> 100 µM	> 100 µM	> 100 µM	> 100 µM	> 100 µM
S=C1SCN(C2CCCCCCCCCCC2)CN1C1CCCCCCCCCCC1		> 100 µM		> 100 µM		> 100 µM		> 100 µM		> 100 µM		> 100 µM		> 100 µM		> 100 µM		> 100 µM		> 100 µM
CCCCCC(=C/c1ccccc1)/C=N/N=C(N)N	1.43 µM	2.82 µM	1.45 µM	3.19 µM	1.6 µM	3 µM	1.7 µM	3.18 µM	1.7 µM	3.28 µM	1.69 µM	3.28 µM	1.4 µM	2.92 µM	0.451 µM	1.96 µM	1.57 µM	3.13 µM	1.58 µM	3.27 µM
C[C@@H]1OC(=O)NN=C1c1ccc(-c2ccc(F)cc2)c(C(F)(F)F)c1	5.95 µM	19.5 µM	11 µM	25.9 µM	13.7 µM	30.3 µM	10.2 µM	23.3 µM	3.57 µM	13.9 µM	11.2 µM	23.2 µM	10.5 µM	26.8 µM	7.93 µM	> 100 µM	11.7 µM	25.6 µM	10.3 µM	25.4 µM
O=C1c2ccccc2-c2c1c1ccc([N+](=O)[O-])cc1c(=O)n2CCCn1ccnc1	0.0227 µM	1.25 µM	2.18 µM	29.9 µM	0.218 µM	0.894 µM	0.157 µM	0.69 µM	1.55 µM	5.98 µM		0.704 µM	0.832 µM	14.3 µM	1.09 µM	3.84 µM	< 0.0275 µM	7.98 µM	< 0.0418 µM	10.9 µM
CCCc1n(Cc2ccc3ccccc3n2)cc[n+]1Cc1ccc2ccccc2c1	0.626 µM	2.5 µM	0.188 µM	1.12 µM	2.93 µM	10.2 µM	0.38 µM	2.54 µM	0.443 µM	2.17 µM	4.08 µM	15.6 µM	0.487 µM	4.96 µM	0.312 µM	0.933 µM	0.658 µM	10.6 µM	0.409 µM	2.07 µM
C[C@@]1(O)CCC[C@H]1n1c(=O)c(C(F)F)cc2cnc(NC3CCN(S(C)(=O)=O)CC3)nc21	1.8 µM	> 100 µM	2.04 µM	6.8 µM	1.9 µM	> 100 µM	1.67 µM	> 100 µM	1.4 µM	9.01 µM	1.37 µM	> 100 µM	2.1 µM	> 100 µM	1.14 µM	5.38 µM	0.109 µM	11.9 µM	1.27 µM	> 100 µM
CC1(C)OC2COC(c3[nH]nc4c(=O)[nH]c(=O)[nH]c34)C2O1 (stereo not drawn)		> 100 µM		> 100 µM		> 100 µM		> 100 µM		> 100 µM		> 100 µM		> 100 µM		> 100 µM		> 100 µM		> 100 µM
CN[C@H]1CC[C@]23C[C@]24CC[C@]2(C)[C@@H]([C@H](C)N(C)C)CC[C@@]2(C)[C@@H]4CC[C@H]3C1(C)C		31.8 µM		26 µM		19.8 µM		27.6 µM		29.8 µM		31 µM		29 µM		36.3 µM		37.2 µM		14.2 µM
NC(N)=NC(N)=Nc1ccc(S(N)(=O)=O)cc1		> 100 µM		> 100 µM		> 100 µM		> 100 µM		> 100 µM		> 100 µM		> 100 µM		> 100 µM		> 100 µM		> 100 µM
C=C1C(=O)O[C@H]2[C@H]1CC/C(Cn1cc(-c3ccsc3)nn1)=C\CC[C@@]1(C)O[C@@H]21	6.45 µM	19.6 µM	1.66 µM	3.62 µM	1.76 µM	3.96 µM	2.5 µM	8 µM	1.85 µM	4.54 µM	1.32 µM	2.69 µM	4.21 µM	14.9 µM	1.91 µM	7 µM	4.71 µM	18.9 µM	1.66 µM	3.64 µM
O=C(Nc1ccc(-n2ccc3c(NC(=O)c4ccccc4)nccc32)cc1)c1ccc(N2CCOCC2)c(C(F)(F)F)c1	0.0707 µM	18 µM	1.96 µM	18.1 µM	0.364 µM		0.0441 µM	8.16 µM	0.102 µM	41.8 µM	0.106 µM	22.8 µM	1.02 µM	52.5 µM	1.01 µM	> 100 µM	0.0129 µM	1.35 µM	0.0476 µM	3.71 µM
O=C(O)CNC(=O)C1NC(C(F)(F)F)(C(F)(F)F)OC1(C(F)(F)F)C(F)(F)F (stereo not drawn)		> 100 µM		> 100 µM		> 100 µM		> 100 µM		> 100 µM		> 100 µM		> 100 µM		> 100 µM		> 100 µM		> 100 µM
COC1C(O)CC(OC2CC(OC3CC(O[C@@H]4C(=O)c5c(cc6cc(OC7CC(OC8CC(O)C(O)C(C)O8)C(O)C(C)O7)c(C)c(O)c6c5O)CC4[C@H](OC)[C@@H](O)C(C)=O)OC(C)C3O)OC(C)C2O)OC1C (stereo partly drawn)	0.0124 µM	> 33.3 µM	0.032 µM	> 33.3 µM	0.0219 µM	> 33.3 µM	0.0125 µM	> 33.3 µM	0.0156 µM	7.07 µM	0.025 µM		0.0243 µM	> 33.3 µM	0.0236 µM	6.94 µM	0.00673 µM	> 33.3 µM	0.00995 µM	0.0295 µM
COc1ccccc1N1CCN(CCCOc2ccc(C(=O)/C=C3/C(=O)Nc4ccccc43)cc2)CC1	8.2 µM	24.8 µM	2.59 µM	22.2 µM	19.7 µM	> 70 µM	15.4 µM	63.7 µM	13.6 µM	52.3 µM	15.9 µM	> 77.6 µM	12 µM	> 100 µM	6.09 µM	27.2 µM	13.5 µM	65.5 µM	3.13 µM	12.2 µM
CN1CCN(Cc2ccc(NC(=O)c3cccc(C#Cc4c(N)ncc5ccc(F)cc45)c3)cc2C(F)(F)F)CC1	0.121 µM	0.754 µM	0.349 µM	1.3 µM	0.966 µM	1.74 µM	0.833 µM	1.6 µM	0.763 µM	1.47 µM	0.509 µM	1.1 µM	0.852 µM	1.86 µM	0.626 µM	1.88 µM	0.885 µM	1.72 µM	0.391 µM	1.87 µM
N#Cc1ccc(NC(=O)Nc2nc3ccc(OC(F)(F)F)cc3s2)cc1	1.02 µM	6.89 µM	0.324 µM		2 µM	6.35 µM	1.43 µM	11.4 µM	1.42 µM	6.79 µM	0.732 µM	7.05 µM	1.36 µM	12.2 µM	2.44 µM	21.3 µM	0.605 µM	7.81 µM	2.07 µM	10 µM
CC(C)Cc1ccc(C(C)/C=C2\CCC(CN3CCCCC3)C2=O)cc1 (stereo not drawn)		6.36 µM		30.4 µM		3.38 µM		4.94 µM		28.2 µM		19.9 µM		17.5 µM		5 µM		66.1 µM		15.9 µM
CCCCCCC/C=C1\CCC(CN(C)C)C1=O (stereo not drawn)		13.9 µM		33.7 µM		3.84 µM		32.1 µM		18.8 µM		31.6 µM		27.6 µM		9.09 µM		40.5 µM		29.9 µM
Cc1cc(C)c(O)c(CNCCCNCc2cc(C)cc(C)c2O)c1	2.58 µM	7.24 µM	1.94 µM	7.23 µM	4.69 µM	18.7 µM	1.95 µM	3.89 µM	1.54 µM	2.93 µM	3.55 µM	10.8 µM	6.69 µM	19.8 µM	2.33 µM	4.75 µM	2.13 µM	4.65 µM	3.02 µM	10.7 µM
O=c1c(-c2nc3ccccc3[nH]2)cc2ccccc2n1Cc1cn(Cc2ccccc2Cl)nn1	2.5 µM	7.72 µM	1.85 µM	4.93 µM	1.66 µM	3.27 µM	2.41 µM	7.13 µM	1.9 µM	3.93 µM	1.71 µM	3.27 µM	2.6 µM	7.5 µM	6.22 µM	> 100 µM	2.01 µM	3.88 µM	2.2 µM	4.7 µM
C=C(C)[C@@H]1CC[C@]2(CN)CC[C@]3(C)[C@H](CC[C@@H]4[C@@]5(C)CCC(N)[C@@](C)(CO)[C@@H]5CC[C@]43C)[C@@H]12 (stereo partly drawn)	1.79 µM	3.37 µM	1.42 µM	2.81 µM	1.64 µM	3.11 µM	1.61 µM	3.01 µM	1.85 µM	3.46 µM	1.86 µM	3.29 µM	1.65 µM	3.1 µM	1.29 µM	2.97 µM	1.87 µM	3.51 µM	1.59 µM	3.12 µM
COCC(=O)NC/C=C/c1ccc2ncnc(Nc3ccc(Oc4ccc(C)nc4)c(C)c3)c2c1	18.7 µM	53 µM	6.48 µM	36.3 µM	15.1 µM	42 µM	13.2 µM	31.9 µM	11.4 µM	29.9 µM	3.98 µM	69.3 µM	15.5 µM	> 83.1 µM	21.9 µM	59 µM	4.74 µM	22.3 µM	15.5 µM	39.4 µM
CC(=Nc1ccccc1)C1=C(O)C(Cc2ccc(F)cc2)NC1=O (stereo not drawn)	0.4 µM	> 100 µM	0.327 µM	> 100 µM	9.67 µM	> 100 µM	0.825 µM	> 100 µM	0.16 µM	0.449 µM	8.24 µM	> 100 µM	0.894 µM	> 100 µM	0.287 µM	> 100 µM	0.44 µM	> 100 µM	0.339 µM	> 100 µM
C[C@H](C(O)CC(=O)C(C)(C)O)[C@H]1CC[C@@]2(C)[C@@H]3CC[C@H]4C(C)(C)[C@@H](OC5OC(COC6OC(CO)C(O)C(O)C6O)C(O)C(O)C5O)CC[C@]4(C)C3=CC[C@]12C (stereo partly drawn)		> 100 µM		> 100 µM		> 100 µM		> 100 µM		> 100 µM		> 100 µM		> 100 µM		> 100 µM		> 100 µM		> 100 µM
COC(=O)[C@H](Cc1cn(C)cn1)NC(=O)[C@@H](NC(=O)Nc1cc(C(F)(F)F)cc(C(F)(F)F)c1)C(C)(C)C	> 10 µM	> 10 µM			> 10 µM	> 10 µM	> 10 µM	> 10 µM	> 10 µM	> 10 µM	> 10 µM	> 10 µM	> 10 µM	> 10 µM	> 10 µM	> 10 µM	> 10 µM	> 10 µM	> 10 µM	> 10 µM
CN(C)C1C(=O)C(C(N)=O)=C(O)C2(O)C(=O)C3=C(O)c4c(O)cccc4C(C)(O)C3CC12 (stereo not drawn)		> 100 µM		> 100 µM	26.1 µM and > 100 µM	63.8 µM and > 100 µM			21 µM and > 100 µM	36.8 µM and > 100 µM	39.9 µM and 82.7 µM	> 100 µM		> 100 µM	24.5 µM and 82.9 µM	53.2 µM and > 100 µM		> 100 µM	27.2 µM and > 100 µM	67.9 µM and > 100 µM
